Results published in patent US20230091608A1, “COMPOUND AND DIAGNOSTIC SYSTEM COMPRISING SAID COMPOUND FOR THE GUSTATORY DETECTION OF INFLAMMATIONS IN THE ORAL CAVITY” (Julius-Maximilians-Universitaet Wuerzburg, priority 2019, published 2023).

Tested on: aminopeptidase (AP)
Experiment: Cleavage of [Ia-X] constructs by aminopeptidase (AP), LC/MS for complete degradation
Format: biochemical
Protocol: To trigger maximum gustatory perception, the last amino acid from the modified denatonium must also be removed by the aminopeptidase.
The resulting constructs were incubated with AP for 24 h and analyzed by LC/MS for complete degradation (Table 2).

Compound | Detectable after 24 h incubation with AP
Tyrosine | −
Lysine | −
N[C@@H](Cc1c[nH]c2ccccc12)C(=O)O [Tryptophan] | +
Alanine | −
N[C@@H](Cc1ccccc1)C(=O)O [Phenylalanine] | −
Arginine | −
N[C@@H](Cc1c[nH]cn1)C(=O)O [Histidine] | +
NCC(=O)O [Glycine] | +
Proline | +

The remaining lines, values ahead:

Detectable after 24 h incubation with AP | Compound
+ | NC(=O)C[C@H](N)C(=O)O [Asparagine]
+ | CC[C@H](C)[C@H](N)C(=O)O [Isoleucine]
− | CC(C)C[C@H](N)C(=O)O [Leucine]
+ | CC(C)[C@H](N)C(=O)O [Valine]
+ | N[C@@H](CC(=O)O)C(=O)O [Aspartic acid]
− | N[C@@H](CO)C(=O)O [Serine]
− | N[C@@H](CS)C(=O)O [Cysteine]
+ | NC(=O)CC[C@H](N)C(=O)O [Glutamine]
+ | C[C@@H](O)[C@H](N)C(=O)O [Threonine]
− | CSCC[C@H](N)C(=O)O [Methionine]
− | N[C@@H](CCC(=O)O)C(=O)O [Glutamic acid]
